In patent publication US20070244190A1, “Neobritannilactone B and acetyl neobritannilactone B” (priority 2006, published 2007):
pIC50: −log10 of the molar value.

What was measured:
[1] = system: AGS cells; assay: Sub-G1 flow cytometry (Example 3); assay type: cell-based, human; details: 24 h, FIG. 3
Experimental: (§1) Flow Cytometry. AGS cells (2×10^5) were cultured in 60-mm Petri dishes and incubated for 24 h. The cells were then harvested, washed with PBS, resuspended in 200 μL of PBS, and fixed in 800 μL of iced 100% ethanol at −20° C. After being left to stand overnight, the cell pellets were collected by centrifugation, resuspended in 1 mL of hypotonic buffer (0.5% Triton X-100 in PBS and 0.5 μg/mL RNase), and incubated at 37° C. for 30 min. Next, 1 mL of propidium iodide solution (50 μg/mL) was added, and the mixture was allowed to stand on ice for 30 min. Fluorescence emitted from the propidium iodide-DNA complex was quantitated after excitation of the fluorescent dye by FACScan cytometry (Becton Dickinson, San Jose, Calif.).
The cytotoxic effects of NAB and ANAB in AGS cells were analyzed to assess their consistency with the specific changes that characterize apoptosis, such as DNA fragmentation. To investigate the induction of a sub-G1 cell population, the DNA content of AGS cells treated with various concentrations of NAB and ANAB was analyzed by flow cytometry. Cells were treated with NAB and ANAB, and stained with propidum iodide.

[2] = system: human AGS gastric carcinoma cell lines; assay: Cell survival assay (Example 3), trypan blue exclusion; assay type: cell-based; details: 24 h treatment, Example 3, FIG. 2, read-out: IC50, cell viability
Experimental: Cell Survival Assay. The human AGS gastric carcinoma cell lines (CCRC 60102) were maintained as described in Section 8.2 above. For assays, cells (5×10^4) were plated in 35-mm Petri dishes. The next day, the medium was changed and NAB and ANAB were added. Control cells were treated with DMSO to a final concentration of 0.05% (v/v). At the end of incubation, cells were harvested for cell count using a hemocytometer.
To test the effects of NAB and ANAB on cell viability, human gastric carcinoma cells were treated with different concentrations of NAB and ANAB. After 24 h treatment, the number of live cells was determined by trypan blue exclusion assay. FIG. 2. Both compounds were potent inhibitors of cell viability.

[3] = system: HL-60 cells; assay: Cell viability, trypan blue exclusion, 24 h; assay type: cell-based; details: HL-60, 24 h, mean ± SE, n=3, read-out: IC50, growth of human cancer cells
Experimental: (§2) Cell Culture and Chemicals. The COLO 205 and HT 29 cell lines were isolated from human colon adenocarcinoma (ATCC CCL-222 and HTB-38); human promyelocytic leukemia (HL-60) cells were obtained from American Type Culture Collection (Rockville, Md.). The human AGS gastric carcinoma cell lines (CCRC 60102) were obtained from the Food Industry Research and Development Institute (Hsinchu, Taiwan). Cell lines were grown at 37° C. in 5% CO2 dioxide atmosphere in RPMI for COLO 205, HT-29, and HL-60 cells and DMEM/F12 for AGS cells, all supplemented with 10% heat-inactivated fetal bovine serum (GIBCO BRL, Grand Island, N.Y.) (100 units/mL of penicillin, 100 μg/mL of streptomycin), and 2 mM L-glutamine (GIBCO BRL). Selected compounds were dissolved in dimethyl sulfoxide (DMSO). Propidium iodide was obtained from Sigma Chemical Co. (St. Louis, Mo.).
(§3) Determination of Cell Viability. Human cancer cells were treated either with DMSO (0.01%) or the selected compounds (5-100 μM). Cell viability was determined at 24 h based on trypan blue exclusion assay. The viability percentage was calculated based on the percentage of unstained cells. Suspensions of cells were diluted 1:1 with 0.5% trypan blue solution. Stained and unstained cells were counted in a hemocytometer.

[4] = system: AGS cells; assay: Cell viability, trypan blue exclusion, 24 h; assay type: cell-based; details: mean ± SE, n=3, read-out: IC50, growth of human cancer cells
Experimental: as §2, §3

[5] = system: COLO 205 cells; assay: Cell viability, trypan blue exclusion, 24 h; assay type: cell-based; details: COLO 205, 24 h, mean ± SE, n=3, read-out: IC50, growth of human cancer cells
Experimental: as §2, §3

[6] = system: HT-29 cells; assay: Cell viability, trypan blue exclusion, 24 h; assay type: cell-based; details: HT-29, 24 h, mean ± SE, n=3, read-out: IC50, growth of human cancer cells
Experimental: as §2, §3

[7] = system: HL-60 cells; assay: Apoptosis (sub-G1) by flow cytometry; assay type: cell-based, human; details: 24 h, mean ± SE
Experimental: as §2
as §1, with “Human cancer” for “AGS”, “The apoptotic cells (sub-G1) in the selected compounds and treated” for “The”, “measured by flow cytometry analysis. Then cells were” for “then”, “Then” for “Next,”, “added” for “added,”
(§4) The compounds isolated from Inula were tested for their effects on the apoptotic ratio in human cancer cells.

[8] = system: HT-29 cells; assay: Apoptosis (sub-G1) by flow cytometry; assay type: cell-based, human; details: 24 h, mean ± SE
Experimental: as §2
as §1, with “Human cancer” for “AGS”, “The apoptotic cells (sub-G1) in the selected compounds and treated” for “The”, “measured by flow cytometry analysis. Then cells were” for “then”, “Then” for “Next,”, “added” for “added,”
as §4

| SMILES | percentage of apoptotic AGS cells ([1]; 5 μM) | percentage of apoptotic AGS cells ([1]; 10 μM) | percentage of apoptotic AGS cells ([1]; 15 μM) | percentage of apoptotic AGS cells ([1]; 25 μM) | pIC50 [2] | pIC50 [3] | pIC50 [4] | pIC50 [5] | pIC50 [6] | apoptotic ratio ([7]; HL-60, 5 μM) | apoptotic ratio ([7]; HL-60, 10 μM) | apoptotic ratio ([7]; HL-60, 25 μM) | apoptotic ratio ([7]; HL-60, 50 μM) | apoptotic ratio ([7]; HL-60, 100 μM) | apoptotic ratio ([8]; HT-29, 5 μM) | apoptotic ratio ([8]; HT-29, 10 μM) | apoptotic ratio ([8]; HT-29, 25 μM) | apoptotic ratio ([8]; HT-29, 50 μM) | apoptotic ratio ([8]; HT-29, 100 μM) | other results |
| --- | --- | --- | --- | --- | --- | --- | --- | --- | --- | --- | --- | --- | --- | --- | --- | --- | --- | --- | --- | --- |
| C=C1C(=O)OC2C=C(C)CCC=C(C)CC(O)C12 (stereo not drawn) [Compound 3, 4-hydroxy-3α,4,5,8,9,11α-hexahydro-6,10-dimethyl-3-methylene-cyclodeca[b]furan-2(3H)-one] | 14% | 27% | 63% | 86% | 5.12 | 4.56 | 4.67 | 4.84 | 4.25 | 9.82 ± 1.90% | 21.93 ± 2.81% | 77.57 ± 7.06% | 96.94 ± 0.57% | 98.29 ± 0.15% | 13.58 ± 0.87% | 24.46 ± .88% | 66.54 ± 1.58% | 82.27 ± 1.68% | 87.02 ± 0.30% | apoptotic ratio ([7]; HL-60, 25 μM, listed as NAB): 77.54%; apoptotic ratio ([8]; HT-29, 25 μM, listed as NAB): 66.54% |
| C=C1C(=O)O[C@H]2/C=C(\C)CC/C=C(\C)C[C@H](OC(C)=O)[C@@H]12 [Compound 4, acetyl neobritannilactone B] | 24% | 64% | 81% | 92% | 5.38 | 4.79 | 5.27 | 4.83 | 4.24 | 22.93 ± 1.34% | 39.71 ± 2.85% | 95.17 ± 1.61% | 97.74 ± 0.44% | 98.05 ± .30% | 20.38 ± .17% | 47.56 ± 0.00% | 69.70 ± .22% | 81.43 ± 1.46% | 82.47 ± 2.06% | apoptotic ratio ([7]; HL-60, 25 μM, listed as ANAB): 95.17%; apoptotic ratio ([8]; HT-29, 25 μM, listed as ANAB): 69.70% |
